Experimental data reported in patent publication US4508663A, “Process for preparing thiosulfenamide derivatives of N-phosphonomethylglycinonitriles” (Monsanto Company, priority 1983, dated 1985).

Tests used:
Experiment in all cases: post-emergence herbicidal activity, greenhouse
Format in all cases: in vivo
Hemp Sesbania = details: Table II, 4 WAT
Summary of the method: (§1)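 Plants grown from seed or perennial propagules in greenhouse soil pans were sprayed at two to three weeks with compound solution or suspension containing about 0.4% emulsifier, at the stated application rates. Injury relative to untreated controls was scored at approximately two and four weeks after treatment on a post-emergence activity index.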

Downy Brome = details: 4 WAT
Summary of the method: as §1

Wheat = details: Table II, 4 WAT
Summary of the method: as §1

Canada Thistle = details: Table I, 4 WAT
Summary of the method: as §1

Quackgrass = details: Table I, 4 WAT
Summary of the method: as §1

Yellow Nutsedge = details: Table I, 4 WAT
Summary of the method: as §1

Velvetleaf = details: 4 WAT
Summary of the method: as §1

Crabgrass = details: Table II, 4 WAT
Summary of the method: as §1

Cocklebur = details: 4 WAT
Summary of the method: as §1

Panicum Spp = details: Table II, 4 WAT
Summary of the method: as §1

Lambsquarters = details: 4 WAT
Summary of the method: as §1

Wild Buckwheat = details: Table II, 4 WAT
Summary of the method: as §1

Sorghum = details: Table II, 4 WAT
Summary of the method: as §1

Soybean = details: Table II, 4 WAT
Summary of the method: as §1

Rice = details: Table II, 4 WAT
Summary of the method: as §1

Johnsongrass = details: Table I, 4 WAT
Summary of the method: as §1

Barnyardgrass = details: 4 WAT
Summary of the method: as §1

Sugar Beet = details: Table II, 4 WAT
Summary of the method: as §1

Smartweed = details: 4 WAT
Summary of the method: as §1

Morningglory = details: 4 WAT
Summary of the method: as §1

## N#CCN(CP(=O)(Oc1ccccc1)Oc1ccccc1)SCl [I]
Hemp Sesbania; 0.28 kg/h
  post-emergence herbicidal activity index: 0 (0-24% control)
Hemp Sesbania; 1.12 kg/h
  post-emergence herbicidal activity index: 0 (0-24% control)
Hemp Sesbania; 5.6 kg/h
  post-emergence herbicidal activity index: 2 (50-74% control)
Downy Brome; Table I, 5.6 kg/h
  post-emergence herbicidal activity index: 0 (0-24% control)
Downy Brome; Table I, 11.2 kg/h
  post-emergence herbicidal activity index: 2 (50-74% control)
Downy Brome; Table II, 0.28 kg/h
  post-emergence herbicidal activity index: 1 (25-49% control)
Downy Brome; Table II, 1.12 kg/h
  post-emergence herbicidal activity index: 0 (0-24% control)
Downy Brome; Table II, 5.6 kg/h
  post-emergence herbicidal activity index: 1 (25-49% control)
Wheat; 0.28 kg/h
  post-emergence herbicidal activity index: 0 (0-24% control)
Wheat; 1.12 kg/h
  post-emergence herbicidal activity index: 1 (25-49% control)
Wheat; 5.6 kg/h
  post-emergence herbicidal activity index: 1 (25-49% control)
Canada Thistle; 5.6 kg/h
  post-emergence herbicidal activity index: 1 (25-49% control)
Canada Thistle; 11.2 kg/h
  post-emergence herbicidal activity index: 2 (50-74% control)
Quackgrass; 5.6 kg/h
  post-emergence herbicidal activity index: 0 (0-24% control)
Quackgrass; 11.2 kg/h
  post-emergence herbicidal activity index: 1 (25-49% control)
Yellow Nutsedge; 5.6 kg/h
  post-emergence herbicidal activity index: 2 (50-74% control)
Yellow Nutsedge; 11.2 kg/h
  post-emergence herbicidal activity index: 2 (50-74% control)
Velvetleaf; Table I, 5.6 kg/h
  post-emergence herbicidal activity index: 2 (50-74% control)
Velvetleaf; Table I, 11.2 kg/h
  post-emergence herbicidal activity index: 2 (50-74% control)
Velvetleaf; Table II, 0.28 kg/h
  post-emergence herbicidal activity index: 1 (25-49% control)
Velvetleaf; Table II, 1.12 kg/h
  post-emergence herbicidal activity index: 1 (25-49% control)
Velvetleaf; Table II, 5.6 kg/h
  post-emergence herbicidal activity index: 2 (50-74% control)
Crabgrass; 0.28 kg/h
  post-emergence herbicidal activity index: 0 (0-24% control)
Crabgrass; 1.12 kg/h
  post-emergence herbicidal activity index: 2 (50-74% control)
Cocklebur; Table I, 5.6 kg/h
  post-emergence herbicidal activity index: 3 (75-99% control)
Cocklebur; Table I, 11.2 kg/h
  post-emergence herbicidal activity index: 2 (50-74% control)
Cocklebur; Table II, 0.28 kg/h
  post-emergence herbicidal activity index: 2 (50-74% control)
Cocklebur; Table II, 1.12 kg/h
  post-emergence herbicidal activity index: 2 (50-74% control)
Cocklebur; Table II, 5.6 kg/h
  post-emergence herbicidal activity index: 2 (50-74% control)
Panicum Spp; 0.28 kg/h
  post-emergence herbicidal activity index: 0 (0-24% control)
Panicum Spp; 1.12 kg/h
  post-emergence herbicidal activity index: 0 (0-24% control)
Panicum Spp; 5.6 kg/h
  post-emergence herbicidal activity index: 1 (25-49% control)
Lambsquarters; Table I, 5.6 kg/h
  post-emergence herbicidal activity index: 4 (100% control)
Lambsquarters; Table I, 11.2 kg/h
  post-emergence herbicidal activity index: 3 (75-99% control)
Lambsquarters; Table II, 0.28 kg/h
  post-emergence herbicidal activity index: 2 (50-74% control)
Lambsquarters; Table II, 1.12 kg/h
  post-emergence herbicidal activity index: 4 (100% control)
Lambsquarters; Table II, 5.6 kg/h
  post-emergence herbicidal activity index: 4 (100% control)
Wild Buckwheat; 0.28 kg/h
  post-emergence herbicidal activity index: 0 (0-24% control)
Wild Buckwheat; 1.12 kg/h
  post-emergence herbicidal activity index: 0 (0-24% control)
Wild Buckwheat; 5.6 kg/h
  post-emergence herbicidal activity index: 2 (50-74% control)
Sorghum; 0.28 kg/h
  post-emergence herbicidal activity index: 1 (25-49% control)
Sorghum; 1.12 kg/h
  post-emergence herbicidal activity index: 2 (50-74% control)
Sorghum; 5.6 kg/h
  post-emergence herbicidal activity index: 3 (75-99% control)
Soybean; 0.28 kg/h
  post-emergence herbicidal activity index: 1 (25-49% control)
Soybean; 1.12 kg/h
  post-emergence herbicidal activity index: 1 (25-49% control)
Soybean; 5.6 kg/h
  post-emergence herbicidal activity index: 2 (50-74% control)
Rice; 0.28 kg/h
  post-emergence herbicidal activity index: 0 (0-24% control)
Rice; 1.12 kg/h
  post-emergence herbicidal activity index: 0 (0-24% control)
Rice; 5.6 kg/h
  post-emergence herbicidal activity index: 1 (25-49% control)
Johnsongrass; 5.6 kg/h
  post-emergence herbicidal activity index: 1 (25-49% control)
Johnsongrass; 11.2 kg/h
  post-emergence herbicidal activity index: 1 (25-49% control)
Barnyardgrass; Table I, 5.6 kg/h
  post-emergence herbicidal activity index: 1 (25-49% control)
Barnyardgrass; Table I, 11.2 kg/h
  post-emergence herbicidal activity index: 2 (50-74% control)
Barnyardgrass; Table II, 0.28 kg/h
  post-emergence herbicidal activity index: 0 (0-24% control)
Barnyardgrass; Table II, 1.12 kg/h
  post-emergence herbicidal activity index: 1 (25-49% control)
Barnyardgrass; Table II, 5.6 kg/h
  post-emergence herbicidal activity index: 2 (50-74% control)
Sugar Beet; 0.28 kg/h
  post-emergence herbicidal activity index: 0 (0-24% control)
Sugar Beet; 1.12 kg/h
  post-emergence herbicidal activity index: 0 (0-24% control)
Sugar Beet; 5.6 kg/h
  post-emergence herbicidal activity index: 0 (0-24% control)
Smartweed; Table I, 5.6 kg/h
  post-emergence herbicidal activity index: 0 (0-24% control)
Smartweed; Table I, 11.2 kg/h
  post-emergence herbicidal activity index: 2 (50-74% control)
Smartweed; Table II, 0.28 kg/h
  post-emergence herbicidal activity index: 1 (25-49% control)
Smartweed; Table II, 1.12 kg/h
  post-emergence herbicidal activity index: 0 (0-24% control)
Morningglory; Table I, 5.6 kg/h
  post-emergence herbicidal activity index: 2 (50-74% control)
Morningglory; Table I, 11.2 kg/h
  post-emergence herbicidal activity index: 2 (50-74% control)
Morningglory; Table II, 0.28 kg/h
  post-emergence herbicidal activity index: 0 (0-24% control)
Morningglory; Table II, 1.12 kg/h
  post-emergence herbicidal activity index: 1 (25-49% control)
Morningglory; Table II, 5.6 kg/h
  post-emergence herbicidal activity index: 2 (50-74% control)
